Experiment [1] in a line: (§1) Antimicrobial activity against Salmonella enterica serotype Stanley isolate AM04864 expressing armA rRNA methyltransferase gene by broth microdilution method. Type of experiment: functional, Salmonella enterica subsp. enterica serovar Stanley. For orientation: Broth dilution looks for growth in wells or tubes with falling amounts of substance.
Experiment [2] is described as follows: (§2) Antimicrobial activity against Salmonella enterica serotype Virchow isolate AM23818 expressing rmtC rRNA methyltransferase gene by broth microdilution method. Type of experiment: functional, Salmonella enterica subsp. enterica serovar Virchow.
The test system of experiment [3] is Salmonella enterica subsp. enterica serovar Stanley. Described as §1. It counts as functional.
Experiment [4] concerns Salmonella enterica subsp. enterica serovar Virchow. Described as §2. Type of experiment: functional.

Our source for the MIC values is ChEMBL document CHEMBL1649210, “Identification of the aminoglycoside resistance determinants armA and rmtC among non-Typhi Salmonella isolates from humans in the United States” (2009).

As usually defined, the MIC is the smallest concentration in the dilution series that meets the test's criterion for growth inhibition.

On to `NCC[C@H](O)C(=O)N[C@@H]1C[C@H](N)[C@@H](O[C@H]2O[C@H](CN)[C@@H](O)[C@H](O)[C@H]2O)[C@H](O)[C@H]1O[C@H]1O[C@H](CO)[C@@H](O)[C@H](N)[C@H]1O` [AMIKACIN], for which the MIC in experiment [1] and in experiment [2] was above 64 µg/mL in each case.

Regarding `NC[C@H]1O[C@H](O[C@H]2[C@H](O)[C@@H](O[C@H]3O[C@H](CO)[C@@H](O)[C@H](N)[C@H]3O)[C@H](N)C[C@@H]2N)[C@H](O)[C@@H](O)[C@@H]1O` [KANAMYCIN], the MIC in experiment [1] and in experiment [2] was above 64 µg/mL each time.

For GENTAMICIN, the MIC in experiment [3] and in experiment [4] was above 16 µg/mL throughout.
